Entries after “also recorded” stand apart in the source; their conditions may differ.
Legend:
[1] = test system: human prostate tumors (22Rv1 cells); experiment: Human prostate tumor model, subcutaneous 22Rv1 tumors in nude mice; assay type: in vivo, athymic nude mice
Experimental: Example 4 A/B: Human cancer cells are subcutaneously (s.c.) implanted (1×10^6) into 4- to 6-week-old athymic nude mice (National Cancer Institute). When tumor sizes in the mice reach between 1 and 6 mm in diameter as assessed by in vivo bioluminescence imaging or by palpation, mice are injected once or multiple times i.p. with the drug, e.g. DZ3a, DHA or o THAD. For mice bearing 22Rv1 tumors, DZ3a (2, 4, 8 and 16 mg/kg) or DHA (e.g. 4.7 mg/kg) is injected twice a week for 5.5 weeks. Whole body optical imaging is taken at 24 hours or as indicated using a Kodak Imaging Station 4000 MM equipped with fluorescent filter sets (excitation/emission, 800:850 nm), with a field of view of 120 mm in diameter, a frequency rate for NIR excitation light of 2 mW/cm^2, and the following camera settings; maximal gain, 2-2 binning, 1,024×1,024 pixel resolution, exposure time of 5 seconds. Live mice are alternatively/additionally imaged by an Olympus OV100 Whole Mouse Imaging System (excitation, 762 nm; emission, 800 nm; Olympus Corp.), containing a MT-20 light source (Olympus Biosystems) and DP70 CCD camera (Olympus). Before imaging, mice are anesthetized with isoflurane (2.5 units), and maintained in an anesthetized state during imaging. Alternatively, a THAD may be compared to DZ3a. […]

C4-2B MDVR cells = experiment: Annexin V / PI flow cytometry, cell death and apoptosis; assay type: cell-based, human; settings: for induced cell death after pretreatment with OATP inhibitor: 2 h pretreatment with OATP inhibitor telmisartan (TMS); for induced cell death after pretreatment with Midivi or Nec-1: 2 h pretreatment with mitochondrial fission inhibitor (Midivi) or necroptosis inhibitor (Nec-1); for cell death / apoptosis (Annexin V / PI): C4-2B MDVR, e.g. 5 uM, 6 h
Experimental: Example 5E: Cancer cells (here C4-2B MDVR) are pretreated with OATP inhibitor telmisartan (TMS), mevalonate (MVA), Midivi (Drp-1 inhibitor), and necrostatin-1 (Nec-1) for 2 h before treatment with vehicle, DHA, DZ-003 and/or a THAD (e.g. 5 uM each) for 6 h. Cells are subjected to annexin v staining (10 ul/10^6 cells) in the dark at RT for 15-20 min followed by PI staining at 1 mg/ml to determine the apoptosis of the cells based on the PI (red) and Annexin V (green) fluorescence by flow cytometry analysis using SONY SA3800 Spectral Analyzer. […] The vehicle and DHA treated cells remain viable (lower-left quadrant; blue population indicates live cells).

MDVR cells = experiment: Monobromobimane (mBBr) staining, cellular GSH levels; assay type: cell-based, human; settings: 8 h, listed as DZ-003
Experimental: Example 5G: Cancer cells (here MDVR) are treated with DZ1, DHA and/or a THAD (e.g. 6 uM each) for 8 h, followed by monobromobimane (mBBr) staining at 40 uM for 30 min at 37° C., and analyzed with flow cytometry to determine the cellular GSH levels. Flow cytometry analysis of mBBr fluorescence (green) is performed as described in example 5E above. Preliminary experiments indicate that the THAD as described herein may provide a similar or increased effect.

[2] = test system: pATM, γH2AX, cytochrome c; experiment: Western blot analysis of DNA damage and mitochondrial markers; assay type: cell-based
Experimental: The western blot analysis is performed as follows: Protein lysates (25 ug/sample) are separated by electrophoresis into the SDS-PAGE, which is then transferred to a nitrocellulose membrane for immunoblotting analysis. The protein membranes are blocked with 5% non-fat milk in PBS at room temperature (RT) for 1 h, followed by incubation with primary antibodies against proteins of interests diluted in 2% BSA in Phosphate Buffered Saline with Tween-20 (PBST) at 1:500 or 1:1000 at 4° C. overnight. The membranes are washed with PBST three times at 5 min for each wash on an orbital shaker, and then incubated with secondary antibodies against the species of the primary antibodies (i.e. anti-mouse or anti-rabbit) diluted in 5% non-fat milk in PBST for 1 h at RT with shaking. After the secondary antibody, the membranes are washed three times for 5 min each, and subjected to chemiluminescence imaging with ECL substrates (e.g. Pierce ECL Plus™, Thermo Fisher Scientific), to detect the protein bands of interest. Preliminary experiments indicate that the THAD as described herein may have an increased effect compared to DZ3a.

[3] = test system: mitochondria and lysosomes of C4-2B MDVR cells; experiment: Confocal microscopy of Mitotracker/Lysotracker staining (subcellular localization); assay type: cell-based, human
Experimental: Subcellular localization (mitochondria, lysosomes) may be performed as follows: Uptake of DZ3a, THAD, controls or other dyes into mitochondria and lysosomes of cancer cells is determined by virtue of each compound constituting a dye or comprising a dye moiety. Cells are plated on live-cell imaging chambers (World Precision Instrument) overnight. Cells are exposed to the dyes at different concentrations, and dye uptake is evaluated by a Perkin-Elmer Ultraview ERS spinning disc confocal microscope mounted on a Zeiss Axiovert 200 m inverted microscope equipped with a 37° C. stage warmer, incubator, and constant CO2 perfusion. A 60× or 100× Zeiss oil objective (numerical aperture, 1.4) is used for live cell images, and a Z-stack is created using the attached piezoelectric z-stepper motor. The 633-nm laser line of an […] (set at 60% power) is used to excite the dye. Light emission at 650 nm is detected and found to correlate directly with the dye concentrations in the cells. For comparative studies, the exposure time and laser intensity are kept identical for accurate intensity measurements. Pixel intensity is quantified using Metamorph 6.1 (Universal Imaging), and the mean pixel intensity is generated as gray level using the Region Statistics feature on the software. […]

C[C@@H]1CC[C@H]2[C@@H](C)C(OC(=O)CCCCCN3/C(=C/C=C4\CCCC(/C=C/C5=[N+](CCCCS(=O)(=O)[O-])c6ccccc6C5(C)C)=C4Cl)C(C)(C)c4ccccc43)O[C@@H]3OC4(C)CC[C@@H]1[C@]32OO4 (stereo in doubt) [DZ3a]
inhibition of tumor volume increase ([1]; DZ-DHA-monoester 2 to 16 mg/kg, DHA 4.7 mg/kg, i.p. twice a week for 5.5 weeks, versus vehicle): similarly inhibit increase in tumor volume compared to the neg. control
tumor inhibition, lowest dose versus higher doses ([1]; about 2 mg/kg versus higher doses up to 16 mg/kg): shows better tumor inhibition than other higher doses
induced cell death after pretreatment with OATP inhibitor (C4-2B MDVR cells): partially inhibited by an OATP inhibitor (TMA)
induced cell death after pretreatment with OATP inhibitor (C4-2B MDVR cells; listed as DZ-003): can be partially inhibited by an OATP inhibitor (TMS)
induced cell death after pretreatment with mevalonate (MVA) (C4-2B MDVR cells; 2 h pretreatment with mevalonate (MVA)): not so much by mevalonic acid (MVA)
induced cell death after pretreatment with Midivi or Nec-1 (C4-2B MDVR cells): blocked by mitochondrial fission (Midivi) and necroptosis inhibitors (Nec-1)
induced cell death after pretreatment with Midivi or Nec-1 (C4-2B MDVR cells; listed as DZ-003): can be blocked by mitochondrial fission (Midivi) and necroptosis inhibitor (Nec-1)
cell death / apoptosis (Annexin V / PI) (C4-2B MDVR cells): induces cell death
cell death / apoptosis (Annexin V / PI) (C4-2B MDVR cells; listed as DZ-003): induced cell death
cellular GSH levels (mBBr fluorescence) (MDVR cells): decreases cellular antioxidant GSH levels; also recorded: Decreased cellular GSH levels
DNA damage (levels of pATM and γH2AX) [2]: induces DNA damage
depletion of mitochondria (levels of cytochrome c) [2]: depletes mitochondria
co-localization with mitochondria and lysosomes [3]: co-localizes with mitochondria and lysosomes; also recorded: exclusive targeting to mitochondria and lysosomes

Reference: patent publication US20230226198A1, “Artemisinin Derivatives” (DA ZEN THERANOSTICS, INC., priority 2019, published 2023)
